This note sets out measurements from US20050014952A1, “Novel thiazoline derivatives as selective androgen receptor modulators (SARMS)” (priority 2003, published 2005).

One may read the inhibition as the relative decrease from the control value, in per cent. One may read the IC50 as the concentration at which inhibition is half-maximal.

The target of the first assay is T1, androgen receptor (Rattus norvegicus, UniProt P15207).
T1 construct: 5 pmol androgen receptor LBD (Panvera); purchased Panvera
T1 sequence (P15207 651-882 limits assumed): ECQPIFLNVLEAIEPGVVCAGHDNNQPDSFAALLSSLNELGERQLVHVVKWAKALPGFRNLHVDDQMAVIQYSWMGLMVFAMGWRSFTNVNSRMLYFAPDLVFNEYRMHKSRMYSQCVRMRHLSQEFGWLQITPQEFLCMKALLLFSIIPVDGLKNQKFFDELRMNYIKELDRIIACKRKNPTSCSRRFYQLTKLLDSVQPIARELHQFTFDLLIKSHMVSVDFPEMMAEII
In words: Androgen Receptor Filtration Binding Assay ([3H] R1881 tracer). The conditions noted are these: @ 1 μM test compound; negative values indicate no antagonist activity; cmpd 4: two separate synthesis batches; cmpds 5 and 7: average of 2.
For `N#Cc1ccc(NC(=O)C2CSC(c3ccc(F)cc3)=N2)cc1C(F)(F)F` (stereo not drawn) [Cmpd #1, 2-(4-fluoro-phenyl)-4,5-dihydro-thiazole-4-carboxylic Acid (3-trifluoromethyl-4-cyano-phenyl)-amide], the inhibition at 1 µM turned out to be 28.5%.
As for `N#Cc1ccc(NC(=O)C2CSC(c3ccc(F)cc3)=N2)cc1` (stereo not drawn) [Cmpd #2, 2-(4-fluoro-phenyl)-4,5-dihydro-thiazole-4-carboxylic Acid (4-cyano-phenyl)-amide], the inhibition at 1 µM is -26%.
Same read-out and setting: next, `N#Cc1ccc(NC(=O)C2CSC(c3cccc(F)c3)=N2)cc1C(F)(F)F` (stereo not drawn) [Cmpd #3, 2-(3-fluoro-phenyl)-4,5-dihydro-thiazole-4-carboxylic Acid (4-cyano-3-trifluoromethyl-phenyl)-amide]: 8.1%.
Same read-out and setting: next, `O=C(Nc1ccc(F)c(C(F)(F)F)c1)C1CSC(c2ccc(F)cc2)=N1` (stereo not drawn) [Cmpd #7, 2-(4-fluoro-phenyl)-4,5-dihydro-thiazole-4-carboxylic Acid (4-fluoro-3-trifluoromethyl-phenyl)-amide]: -24.2%.
The same measure, in the same setting: for `N#Cc1ccc(NC(=O)C2CSC(c3ccc(Cl)cc3)=N2)cc1C(F)(F)F` (stereo not drawn) [Cmpd #9, 2-(4-chloro-phenyl)-4,5-dihydro-thiazole-4-carboxylic acid (4-cyano-3-trifluoromethyl-phenyl)-amide] the value was 41.5%.
As for `O=C(Nc1ccc([N+](=O)[O-])c(C(F)(F)F)c1)C1CSC(c2ccc(Cl)cc2)=N1` (stereo not drawn) [Cmpd #10, 2-(4-chloro-phenyl)-4,5-dihydro-thiazole-4-carboxylic acid (4-nitro-3-trifluoromethyl-phenyl)-amide], the inhibition at 1 µM worked out at 60.5%.
Still for that read-out and setting: for `O=C(Nc1ccc(Cl)c(C(F)(F)F)c1)C1CSC(c2ccc(Cl)cc2)=N1` (stereo not drawn) [Cmpd #11, 2-(4-chloro-phenyl)-4,5-dihydro-thiazole-4-carboxylic acid (4-chloro-3-trifluoromethyl-phenyl)-amide] the value was 30.5%.
With `O=C(Nc1ccc(F)c(C(F)(F)F)c1)C1CSC(c2ccc(Cl)cc2)=N1` (stereo not drawn) [Cmpd #14, 2-(4-chloro-phenyl)-4,5-dihydro-thiazole-4-carboxylic acid (4-fluoro-3-trifluoromethyl-phenyl)-amide], the inhibition at 1 µM is 1.5%.
On the same count and under the same terms, for `O=C(Nc1ccc(Cl)cc1)C1CSC(c2ccc(Cl)cc2)=N1` (stereo not drawn) [Cmpd #16, 2-(4-chloro-phenyl)-4,5-dihydro-thiazole-4-carboxylic Acid (4-chloro-phenyl)-amide] the value was 12%; for `O=C(Nc1ccc(Cl)c(C(F)(F)F)c1)C1CSC(c2cccc(F)c2)=N1` (stereo not drawn) [Cmpd #17, 2-(3-fluoro-phenyl)-4,5-dihydro-thiazole4-carboxylic Acid (4-chloro-3-trifluoromethyl-phenyl)-amide], -34%; for `O=C(Nc1ccc(F)c(C(F)(F)F)c1)C1CSC(c2cccc(F)c2)=N1` (stereo not drawn) [Cmpd #18, 2-(3-fluoro-phenyl)-4,5-dihydro-thiazole-4-carboxylic Acid (4-fluoro-3-trifluoromethyl-phenyl)-amide], -19%.
On the same count and under the same terms, for `CC1(C)SC(c2ccc(F)cc2)=NC1C(=O)Nc1ccc(C#N)c(C(F)(F)F)c1` (stereo not drawn) [Cmpd #19, 2-(4-fluoro-phenyl)-5,5-dimethyl-4,5-dihydro-thiazole-4-carboxylic Acid (4-cyano-3-trifluoromethyl-phenyl)-amide] the value was -1%.
On the same count and under the same terms, for `CC1(C)SC(c2ccc(F)cc2)=NC1C(=O)Nc1ccc([N+](=O)[O-])c(C(F)(F)F)c1` (stereo not drawn) [Cmpd #20, 2-(4-fluoro-phenyl)-5,5-dimethyl-4,5-dihydro-thiazole-4-carboxylic Acid (4-nitro-3-trifluoromethyl-phenyl)-amide] the value was 29%.
For the compound `CC1(C)SC(c2ccc(F)cc2)=NC1C(=O)Nc1ccc(Cl)c(C(F)(F)F)c1` (stereo not drawn) [Cmpd #21, 2-(4-fluoro-phenyl)-5,5-dimethyl-4,5-dihydro-thiazole-4-carboxylic Acid (4-chloro-3-trifluoromethyl-phenyl)-amide], the inhibition at 1 µM is 29%.
On to `CC1(C)SC(c2ccc(Cl)cc2)=NC1C(=O)Nc1ccc(Cl)c(C(F)(F)F)c1` (stereo not drawn) [Cmpd #22, 2-(4-chloro-phenyl)-5,5-dimethyl-4,5-dihydro-thiazole-4-carboxylic Acid (4-chloro-3-trifluoromethyl-phenyl)-amide], for which the inhibition at 1 µM worked out at 0%.
The same measure, in the same setting: next, `CC1(C)SC(c2ccc(Cl)cc2)=NC1C(=O)Nc1cc(F)c(C#N)cc1F` (stereo not drawn) [Cmpd #23, 2-(4-chloro-phenyl)-5,5-dimethyl-4,5-dihydro-thiazole-4-carboxylic Acid (4-cyano-2,5-difluoro-phenyl)-amide]: -5%; `O=C(Nc1cccc(C(F)(F)F)c1F)C1CSC(c2ccc(Cl)cc2)=N1` (stereo not drawn) [Cmpd #24, 2-(4-chloro-phenyl)-4,5-dihydro-thiazole-4-carboxylic Acid (2-fluoro-3-trifluoromethyl-phenyl)-amide]: 0.74%; `O=C(Nc1cccc(C(F)(F)F)c1F)C1CSC(c2ccc(F)cc2)=N1` (stereo not drawn) [Cmpd #25, 2-(4-fluoro-phenyl)-4,5-dihydro-thiazole-4-carboxylic Acid (2-fluoro-3-trifluoromethyl-phenyl)-amide]: -8%.
The same measure, in the same setting: for `O=C(Nc1ccc(Cl)c(C(F)(F)F)c1)C1CSC(c2cccc(Cl)c2)=N1` (stereo not drawn) [Cmpd #26, 2-(3-chloro-phenyl)-4,5-dihydro-thiazole-4-carboxylic Acid (4-chloro-3-trifluoromethyl-phenyl)-amide] the value was 15%.
Still for that read-out and setting: next, `N#Cc1ccc(NC(=O)C2CSC(c3cccc(Cl)c3)=N2)cc1C(F)(F)F` (stereo not drawn) [Cmpd #27, 2-(3-chloro-phenyl)-4,5-dihydro-thiazole-4-carboxylic Acid (4-cyano-3-trifluoromethyl-phenyl)-amide]: 34%; `O=C(Nc1ccc(S(=O)(=O)C(F)(F)F)cc1)C1CSC(c2ccc(F)cc2)=N1` (stereo not drawn) [Cmpd #28, 2-(4-fluoro-phenyl)-4,5-dihydro-thiazole-4-carboxylic Acid (4-trifluoromethanesulfonyl-phenyl)-amide]: -6.3%.
Take `O=C(Nc1ccc(S(=O)(=O)C(F)(F)F)cc1)C1CSC(c2ccc(Cl)cc2)=N1` (stereo not drawn) [Cmpd #29, 2-(4-chloro-phenyl)-4,5-dihydro-thiazole-4-carboxylic Acid (4-trifluoromethanesulfonyl-phenyl)-amide]: the inhibition at 1 µM was 25%.
Same read-out and setting: for `O=C(Nc1ccc([N+](=O)[O-])c(C(F)(F)F)c1)C1CSC(c2cccc(Cl)c2)=N1` (stereo not drawn) [Cmpd #30, 2-(3-chloro-phenyl)-4,5-dihydro-thiazole-4-carboxylic Acid (4-nitro-3-trifluoromethyl-phenyl)-amide] the value was 7%; for `O=C(Nc1ccc(S(=O)(=O)C(F)(F)F)cc1)C1CSC(c2cccc(Cl)c2)=N1` (stereo not drawn) [Cmpd #31, 2-(3-chloro-phenyl)-4,5-dihydro-thiazole-4-carboxylic Acid (4-trifluoromethanesulfonyl-phenyl)-amide], 10%; for `O=C(Nc1cccc(C(F)(F)F)c1F)C1CSC(c2cccc(Cl)c2)=N1` (stereo not drawn) [Cmpd #32, 2-(3-chloro-phenyl)-4,5-dihydro-thiazole4-carboxylic Acid (2-fluoro-3-trifluoromethyl-phenyl)-amide], 8.5%.
For `CC1(C(=O)Nc2ccc(C#N)c(C(F)(F)F)c2)CSC(c2ccc(F)cc2)=N1` (stereo not drawn) [Cmpd #33, 2-(4-fluoro-phenyl)-4-methyl-4,5-dihydro-thiazole-4-carboxylic Acid (4cyano-3-trifluoromethyl-phenyl)-amide], the inhibition at 1 µM was found to be 27%.
On to `O=C(Nc1ccc(Cl)c(C(F)(F)F)c1)C1CSC(c2ccc(F)cc2)=N1` (stereo not drawn) [compound 5, 2-(4-fluoro-phenyl)-4,5-dihydro-thiazole-4-carboxylic Acid (4-chloro-3-trifluoromethyl-phenyl)-amide], for which the inhibition at 1 µM is 12.3%.
On the same count and under the same terms, next, `CC1(C(=O)Nc2ccc(Cl)c(C(F)(F)F)c2)CSC(c2ccc(F)cc2)=N1` (stereo not drawn) [compound 12]: 52%; `CC1(C(=O)Nc2ccc([N+](=O)[O-])c(C(F)(F)F)c2)CSC(c2ccc(F)cc2)=N1` (stereo not drawn) [compound 13]: 29%.

In another assay the target is T1, androgen receptor. The description is as above. The conditions noted are these: @ 10 μM test compound; Androgen Receptor Binding Results. The method, then:
In Vitro Assay—Androgen Receptor Filtration Binding Assay
The assay was run on a 96 well plate with each well filled with total reaction volume 150 μL, of a solution containing 5 pmol androgen receptor LBD (Panvera) or 30 μL of freshly prepared rat cytosol, 0.5 nM [^3H] R1881 tracer (NEN), 1.5 μL (10 μM) test compound or vehicle (diluted in 30% DMSO, final concentration of DMSO 0.75%) and […] of TED buffer. (TED buffer contains 10 mM Tris.HCl pH 7.4, 1 mM sodium molybdate (60 mg/250 mL), 1.5 mM EDTA, 1 mM DTT and 10% (v/v) glycerol.)
On day one, the solution containing receptor, tracer and TED buffer was distributed onto a 96 well plate. Diluted test compound or control vehicle was then added to individual wells and the plate incubated at 4° C. overnight.
On day two, to each well was then added 20 μL human γ-globulin (ICN 823102), prepared at 25 mg/ml in TE pH 8.0, and 55 μL 40% polyethylene glycol 8000 (J T Baker U222-08), prepared in TE pH 8.0. The plate was incubated at 4° C. for 60 minutes. During incubation, the harvester was rinsed with 10% PEG 8000, prepared in TE pH 8.0 and the GF/C Unifilter-96 prewet with 10% PEG. The binding reaction was filtered, the retentate was washed three times with 10% PEG and dried under vacuum for about four minutes, then dried at 50° C. for 5 min and then bottom sealed. 25 μL of Microscint-20 (Packard) was added to the filter wells and top sealed. The plate wells were then counted on a TopCount (Packard).
Selected compounds of the present invention were tested for binding to the androgen receptor according to the procedure described above with results as listed in Table 2. Negative number(s) indicate that there is no antagonist activity for the test compound. The compound may however have agonist activity, which was not tested for.
For the compound `N#Cc1ccc(NC(=O)C2CSC(c3ccc(F)cc3)=N2)cc1C(F)(F)F` (stereo not drawn) [Cmpd #1, 2-(4-fluoro-phenyl)-4,5-dihydro-thiazole-4-carboxylic Acid (3-trifluoromethyl-4-cyano-phenyl)-amide], the inhibition at 10 µM came to 50%.

Still in this assay, the particulars now being: Androgen Receptor Binding Results.
The compound `O=C(Nc1ccc(Cl)c(C(F)(F)F)c1)C1CSC(c2ccc(Cl)cc2)=N1` (stereo not drawn) [Cmpd #11, 2-(4-chloro-phenyl)-4,5-dihydro-thiazole-4-carboxylic acid (4-chloro-3-trifluoromethyl-phenyl)-amide] showed an IC50 of 3.5 µM.
Still for that read-out and setting: for `CC1(C(=O)Nc2ccc(Cl)c(C(F)(F)F)c2)CSC(c2ccc(F)cc2)=N1` (stereo not drawn) [compound 12] the value was greater than 10 µM; for `CC1(C(=O)Nc2ccc([N+](=O)[O-])c(C(F)(F)F)c2)CSC(c2ccc(F)cc2)=N1` (stereo not drawn) [compound 13], greater than 10 µM.
